From PubChem BioAssay AID1996 come the findings set out here.

Structures are written as SMILES. ≈ marks a conversion by molar mass, not a printed value.

The conditions of the series: buffer; pH 7.4; 200.0 µM.
Consider `CC(NC(=S)NC1CCC(C(C)(C)C)CC1)c1ccccc1` (configuration not stated), for which the solubility (kinetic) (as a rule, the concentration staying in solution when a stock, usually in DMSO, is diluted into the medium) is < 0.3 µg/mL.

The compound `Cc1c(Cl)ccc(S(=O)(=O)Nc2cccnc2)c1Cl` showed a kinetic solubility of 5.1 µg/mL (≈ 16.1 µM).

`O=C(O)CSCc1nc2cccnc2n1C1CCCCC1` gave a kinetic solubility of 42.1 µg/mL (≈ 138 µM).

The compound `CN(CC(=O)Nc1ccc(F)cc1)CC(=O)N1CCCC1` registered a solubility (kinetic) of 43 µg/mL (≈ 147 µM).

With `c1ccc2c(c1)CC(CN1CCNCC1)O2` (configuration not stated), the kinetic solubility is > 32.7 µg/mL.

Regarding `O=C(Cc1cccc2ccccc12)NCCOc1ccccc1F`, the solubility (kinetic) came out at 3.7 µg/mL (≈ 11.4 µM).

With `COC(=O)c1ccccc1NC(=O)c1cc[n+](C)cc1`, the kinetic solubility is 26.8 µg/mL.

For `COC(=O)c1cn(C(=O)c2ccc(F)cc2)c2ccccc12`, the kinetic solubility is < 0.6 µg/mL.

Take `O=C(Nc1ccccc1)c1cc(S(=O)(=O)Nc2cccnc2)ccc1Cl`: the kinetic solubility was > 58.2 µg/mL.

As for `CC(=O)O[C@H](CC(=O)O)C[N+](C)(C)C.[Cl-]`, the kinetic solubility was > 36 µg/mL.

On to `Cc1ccccc1C1NC(c2ccccc2C)C(C)C(=O)C1C` (configuration not stated), for which the kinetic solubility was 7.7 µg/mL (≈ 25 µM).

As for `O=C1Nc2ccc([N+](=O)[O-])cc2OC1CCN1CCCC1` (configuration not stated), the kinetic solubility was > 43.7 µg/mL.

As to `COc1ccc(C(=O)CCN2CCCC(C)C2)cc1.Cl` (configuration not stated), the solubility (kinetic) is > 44.7 µg/mL.

In the case of `COc1cc2ccccc2cc1C(=O)NC1CCCC1`, the kinetic solubility is > 40.4 µg/mL.

For the compound `Cc1cc2c3c(c1)C(C)CC(C)(C)N3C(=O)C2=C(C#N)C#N` (configuration not stated), the kinetic solubility was found to be 0.6 µg/mL (≈ 2.06 µM).

As for `Cc1ccc(CNC(=O)Nc2ccc(F)cc2)n1C`, the solubility (kinetic) is > 39.2 µg/mL.

Consider `Cc1ccc(S(=O)(=O)NCc2ccc3c(c2)OCO3)cc1C`, for which the solubility (kinetic) came to 5 µg/mL (≈ 15.7 µM).

Turning to `CCOc1ccc(C(=O)NCC(=O)N2CCCC2)cc1`, the kinetic solubility was > 41.5 µg/mL.

The compound `CC(C)(C)c1ccccc1NC(=S)NC1CCCCC1` showed a kinetic solubility of 2.5 µg/mL (≈ 8.61 µM).

Compound `CCCCC1CCC(C(=O)OC(C)C(=O)Nc2ccc(NC(C)=O)cc2)CC1` (configuration not stated) showed a solubility (kinetic) of 9 µg/mL (≈ 23.2 µM).

Compound `Cc1ccsc1C(=O)OC(C)C(=O)NC1CCCCC1C` (configuration not stated) had a kinetic solubility of 6.4 µg/mL (≈ 20.7 µM).

On to `O=C(O)c1ccc(CNC(=O)C23CC4CC(CC(C4)C2)C3)cc1`, for which the kinetic solubility is > 47 µg/mL.

For the compound `Cc1ccc(C(=O)c2cc3c(cc2[N+](=O)[O-])OCCO3)cc1`, the solubility (kinetic) is 8 µg/mL (≈ 26.7 µM).

As for `O=C(Cc1ccc(-c2ccccc2)cc1)Nc1ccccn1`, the kinetic solubility was determined as 12 µg/mL (≈ 41.6 µM).

On to `CC(C)N(Cc1ccccc1)C(=O)COC(=O)c1cnccn1`, for which the kinetic solubility was > 47 µg/mL.

Compound `NC(=S)Cc1ccc(Cl)cc1Cl` had a solubility (kinetic) of 30.9 µg/mL (≈ 140 µM).

In the case of `Cc1ccccc1S(=O)(=O)NCc1ccc(N2CCN(C)CC2)cc1`, the kinetic solubility was found to be 53.1 µg/mL (≈ 148 µM).

`CCc1ccc(Nc2ccc(C(=O)O)cc2[N+](=O)[O-])cc1`: the kinetic solubility was > 42.9 µg/mL.

Turning to `O=C(CCSCc1ccc(Cl)cc1)NCc1cccnc1`, the kinetic solubility was 48 µg/mL (≈ 150 µM).

For `COc1cccc2[nH]c(=O)c(-c3ccccc3)cc12`, the solubility (kinetic) amounted to 1.4 µg/mL (≈ 5.57 µM).

Compound `CCOP(=O)(OCC)C(NC(=O)c1cccc(C)c1)C(Cl)(Cl)Cl` (configuration not stated) registered a solubility (kinetic) of 56.3 µg/mL (≈ 140 µM).

For `CN(C)c1cccc2c1c(NS(=O)(=O)c1cn(C)cn1)nn2C`, the kinetic solubility is > 50.2 µg/mL.

Compound `CC1CCCC(NC(=O)C2COc3ccccc3O2)C1C` (configuration not stated) had a solubility (kinetic) of 17.2 µg/mL (≈ 59.4 µM).

As for `Cc1ccc(NC(=O)CCSCCc2ccccn2)cc1`, the kinetic solubility was > 45.1 µg/mL.

Turning to `Cc1ccc2nc(NC(=O)c3ccccc3F)sc2c1`, the kinetic solubility was < 0.3 µg/mL.

In turn, `COc1ccccc1CC(=O)NCCN1CCCCC1` returned a kinetic solubility of 39.3 µg/mL (≈ 142 µM).

For `COc1ccc(NS(=O)(=O)c2cccc(C(=O)O)c2)cc1S(=O)(=O)N1CCOCC1`, the solubility (kinetic) is > 68.5 µg/mL.

For `COC(=O)C(NC(C)=O)(Nc1cccc(C)n1)C(F)(F)F` (configuration not stated), the kinetic solubility is > 45.8 µg/mL.

For the compound `CN1CCN(C(=O)COc2ccc3ccccc3c2)CC1`, the kinetic solubility is > 42.7 µg/mL.

`Cc1ccc([N+](=O)[O-])c(OCCn2cnc3ccccc32)c1` had a solubility (kinetic) of 11.6 µg/mL (≈ 39 µM).

`COc1ccc(NC(=O)C2CCC2)cc1S(=O)(=O)Nc1cc(C)ccc1Br` gave a solubility (kinetic) of 1.1 µg/mL (≈ 2.43 µM).

Regarding `CCc1ccccc1NC(=O)NCCN1CCCCC1`, the kinetic solubility was > 41.3 µg/mL.

Turning to `CCOC(=O)C1=C(C)NC2=C(C(=O)OC2)C1c1ccccc1` (configuration not stated), the kinetic solubility is > 44.9 µg/mL.

As to `Cc1cc(C)c(S(=O)(=O)NCc2ccc3c(c2)OCO3)c(C)c1`, the solubility (kinetic) came out at 1.7 µg/mL (≈ 5.1 µM).

`N#Cc1ccc(OCC(O)CS(=O)(=O)c2ccc(F)cc2)cc1` (configuration not stated): the kinetic solubility is > 50.3 µg/mL.

For `O=C(N/N=C/c1ccccc1O)C1CCCC1`, the solubility (kinetic) was > 34.8 µg/mL.

With `CC(C)(C)c1ccc(C(=O)NCCOc2ccccc2)cc1`, the solubility (kinetic) was found to be 2.2 µg/mL (≈ 7.4 µM).

Regarding `Cc1ccccc1NC(=S)N(CCN(C)C)C(C)c1cccnc1` (configuration not stated), the solubility (kinetic) was > 51.4 µg/mL.

`O=C(COC(=O)CCC1CCCC1)Nc1ccccc1OC(F)F` came in with a kinetic solubility of 9.7 µg/mL (≈ 28.4 µM).

`O=C1CC(c2ccccc2F)c2c(c3ccccc3[nH]c2=O)O1` (configuration not stated): the kinetic solubility worked out at 11.4 µg/mL (≈ 36.9 µM).

Compound `CCCC1(C(=O)OCC)NC(c2ccco2)C2C(=O)N(C)C(=O)C21` (configuration not stated) gave a kinetic solubility of 46.2 µg/mL (≈ 138 µM).

As to `O=C(NC(=S)Nc1cccc([N+](=O)[O-])c1)C1CCCCC1`, the solubility (kinetic) was < 0.2 µg/mL.
